Where “and” joins values, the source holds several entries; their conditions need not be identical. Equal values may be shown once. Read-outs that look alike come from different tables or passages of the source.
Tests used:
Saccharomyces cerevisiae = assay: Fermentation test of treated sugar liquor with yeast; format: cell-based
Procedure: The saccharide-containing compositions of Examples 1 and 3 were subjected to a fermentation test with the yeast Saccharomyces cerevisiae. In the fermentation test, 1% yeast extract and 2% peptone were added to the saccharide-containing compositions of Examples 1 and 3 as growth nutrients, and these compositions were then inoculated with 5% inoculum of Saccharomyces cerevisiae (optical density 10). If more than 80% of sugars were consumed in 72 hours of fermentation, the test is considered a “pass” (i.e., a satisfactory test result).
The saccharide-containing compositions were subjected to a fermentation test with the yeast Saccharomyces cerevisiae. In the fermentation test, 1% yeast extract and 2% peptone were added to the saccharide-containing compositions as growth nutrients, and these compositions were then inoculated with 5% inoculum of Saccharomyces cerevisiae (optical density 10). If more than 80% of sugars were consumed in 72 hours of fermentation, the test is considered a “pass” (i.e., a satisfactory test result).

[1] = Reduction of HMF in sugar liquor after contact with amine
Procedure: Sugar liquor was prepared by a two-step hydrolysis process with subsequent refining. A slurry of particulate biomass was first subjected to a first hydrolysis step at about 190-240° C. and 50-80 bar for 1-120 min. The resulting solids were subjected to supercritical or near-critical water conditions at about 374-450° C. and 221-300 bar for less than 1 minute. The resulting liquid portion was concentrated to about 250-300 g/L of monomer sugar equivalent and acid hydrolyzed at about 100-200° C. for 1 hour. The acid-hydrolyzed liquor was filtered and neutralized with sodium hydroxide to a pH of about 5-7. After that, the liquid portion was overlimed with calcium oxide at pH of about 8-10 and filtered. The final pH adjustment to about 5-7 was done with 70% sulfuric acid. Overliming was performed to produce the sugar liquor used in these examples, and an aldehyde compound, HMF, subsequently re-added to simulate a sugar liquor that is not overlimed.
The pH of 100 g of the sugar liquor was adjusted to 6 with sodium hydroxide prior to addition of the amine. 1 g of m-phenylenediamine (MPD) was added to the sugar liquor, and the mixture was shaken for 1 hour.
Using the same procedure to prepare the sugar liquor as described in Example 1, the pH of 100 g of the sugar liquor was adjusted to 6 with NaOH prior to addition of the amine. For each sample, 1 g of amine was added, and the mixture was shaken for 1 hour.
Using the same procedure to prepare the sugar liquor as described in Example 1, the pH of 100 g of the sugar liquor was adjusted to 6 with sodium hydroxide prior to addition of the amine. For each sample, 1 g of amine was added, and the mixture was shaken for 1 hour.

Pichia stipitis = assay: Fermentation testing of treated xylose monomer stream; format: cell-based
Procedure: For fermentation testing, the pH was adjusted back to 5 with H2SO4 and fermentation was performed with the xylose fermenting organism Pichia stipitis.

[2] = Reduction of syringaldehyde in xylose monomer stream (GC/MS); settings: for Syringaldehyde: 100 g xylose monomer stream after treatment, shaken 30-60 min, untreated control 321.5 ppm; for syringaldehyde reduction (in words): xylose monomer stream, from about 321.5 ppm, pass is less than about 50 ppm
Procedure: The acid-hydrolyzed liquor was filtered and then neutralized with sodium hydroxide to a pH of about 5-7 to produce the xylose monomer stream. Five samples labeled Samples 1-5 were evaluated as described in Table 2. Sample 1 was an untreated control. […] The flask was shaken for 30-60 min, and Samples 2 and 5 were then analyzed for syringaldehyde by GC/MS. […] The flask was shaken for about 30-60 min, adjusted to pH of about 5 with H2SO4, and then filtered. The resulting liquid portion was analyzed by GC/MS. For Sample 4, the pH of 100 g of the xylose monomer stream was adjusted to 5-6 with NH4OH, the flask was shaken for 30-60 min, and then the samples were analyzed by GC/MS.

[3] = sugar liquor after contact, 1 g amine per 100 g liquor, pH 6, shaken 1 hour

Row | SMILES | % Glucose Consumed (Saccharomyces cerevisiae; 24 hr) [%] | Ethanol (Saccharomyces cerevisiae; 24 hr) [g/L] | % Glucose Consumed (Saccharomyces cerevisiae; 48 hr) [%] | Ethanol (Saccharomyces cerevisiae; 48 hr) [g/L] | % Glucose Consumed (Saccharomyces cerevisiae; 72 hr) [%] | Ethanol (Saccharomyces cerevisiae; 72 hr) [g/L] | HMF [1, 3] [g/L] | HMF (Saccharomyces cerevisiae; 72 hr) [g/L] | HMF (Saccharomyces cerevisiae; 24 hr) [g/L] | HMF (Saccharomyces cerevisiae; 48 hr) [g/L] | also measured
1 | Cc1ccc(N)cc1N [DAT, 2,4-diaminotoluene] | 51.55 | 43.15 | 96.03 | 92.29 | 95.88 | 86.38 | 0.74 |  |  |  | 
2 | Nc1cccc(N)c1 [MPD, m-phenylenediamine] | 95.64 | 77.25 |  |  |  |  | 1.50 |  |  |  | Ethanol (Pichia stipitis; fermentation time 48 hr): 1.80 g/L; Ethanol (Pichia stipitis; fermentation time 72 hr): 4.86 g/L; Ethanol (Pichia stipitis; fermentation time 96 hr): 8.22 g/L; fermentability of treated sample (in words) (Pichia stipitis; xylose monomer stream, pH adjusted back to 5): fermentable; Syringaldehyde [2]: Not detected; syringaldehyde reduction (in words) [2]: below detectable levels
3 | N.O [NH4OH] |  |  |  |  |  |  |  |  |  |  | Syringaldehyde [2]: 147.7 ppm; syringaldehyde reduction (in words) [2]: did not reduce the concentration of syringaldehyde to below a detectable level
4 | [BH4-].[Na+] [NaBH4] |  |  |  |  |  |  |  |  |  |  | Syringaldehyde [2]: 218.4 ppm; syringaldehyde reduction (in words) [2]: did not reduce the concentration of syringaldehyde to below a detectable level
5 | Nc1ccccc1N [OPD, o-phenylenediamine] | 24.24 | 16.80 | 96.61 | 86.88 | 96.53 | 90.28 |  | 0.36 |  |  | 
6 | Nc1ccc(N)cc1 [PPD, p-phenylenediamine] | 24.18 | 13.74 | 97.75 | 84.75 | 97.40 | 84.79 | 3.40 |  | 0.30 | 0.37 | 
7 | Nc1ccccc1 [aniline] | 5.19 | 1.55 | 5.19 | 1.51 |  |  | 7.43 |  | 5.2 | 4.89 | 
8 | NCCO [ethanolamine] | 7.92 | 3.53 | 6.29 | 2.74 | 7.45 | 2.92 | 6.01 | 4.67 | 5.24 | 5.03 | % Glucose Consumed (Saccharomyces cerevisiae; 120 hr): 12.73%; Ethanol (Saccharomyces cerevisiae; 120 hr): 3.54 g/L; HMF (Saccharomyces cerevisiae; 120 hr): 4.46 g/L
9 | Nc1nc(N)nc(N)n1 [melamine] | 4.24 | 2.13 | 4.15 | 2.48 | 4.97 | 2.1 | 7.52 | 6.45 | 6.59 | 6.47 | % Glucose Consumed (Saccharomyces cerevisiae; 0 hr): 0%; HMF (Saccharomyces cerevisiae; 0 hr): 7.52 g/L
10 | C1CCNCC1 [piperidine] |  |  |  |  |  |  |  |  |  |  | % Glucose Consumed (Saccharomyces cerevisiae): 5.39% and 8.05% and 5.62% and 5.78%; Ethanol (Saccharomyces cerevisiae): 2.37 g/L and 2.49 g/L and 2.71 g/L and 2.15 g/L; HMF (Saccharomyces cerevisiae): 5.31 g/L and 4.83 g/L and 5.51 g/L and 5.61 g/L; HMF ([1]; pH 6): 6.13 g/L
11 | NC(N)=O [urea] | 6.18 | 2.72 | 4.49 | 2.23 | 6.35 | 2.39 | 7.44 | 6.06 | 6.58 | 6.49 | % Glucose Consumed (Saccharomyces cerevisiae; 0 hr): 0%; Ethanol (Saccharomyces cerevisiae; 0 hr): 1.38 g/L; HMF (Saccharomyces cerevisiae; 0 hr): 7.44 g/L; % Glucose Consumed (Saccharomyces cerevisiae; 120 hr): 8.49%; Ethanol (Saccharomyces cerevisiae; 120 hr): 2.41 g/L; HMF (Saccharomyces cerevisiae; 120 hr): 5.66 g/L

— patent publication US9410217B2, “Method of reducing a fermentation and/or enzyme inhibitor in a saccharide-containing composition” (priority 2014, dated 2016)
